Measured values: ChEMBL document CHEMBL2401685 (Bioorg Med Chem Lett, 2013)
Activity calls are given as the source filed them. The rule behind the calls is not given here.

Experiments:
[1] = molecular target: T1, 11-beta-hydroxysteroid dehydrogenase type 2 (Homo sapiens) (UniProt P80365); assay: (§1) Inhibition of 11beta-HSD2 in human kidney microsomes using [3H]-cortisol as substrate assessed as formation of cortisone at 100 uM after 30 mins by radiometric analysis relative to control; conditions: Microsome
T1 sequence (whole entry): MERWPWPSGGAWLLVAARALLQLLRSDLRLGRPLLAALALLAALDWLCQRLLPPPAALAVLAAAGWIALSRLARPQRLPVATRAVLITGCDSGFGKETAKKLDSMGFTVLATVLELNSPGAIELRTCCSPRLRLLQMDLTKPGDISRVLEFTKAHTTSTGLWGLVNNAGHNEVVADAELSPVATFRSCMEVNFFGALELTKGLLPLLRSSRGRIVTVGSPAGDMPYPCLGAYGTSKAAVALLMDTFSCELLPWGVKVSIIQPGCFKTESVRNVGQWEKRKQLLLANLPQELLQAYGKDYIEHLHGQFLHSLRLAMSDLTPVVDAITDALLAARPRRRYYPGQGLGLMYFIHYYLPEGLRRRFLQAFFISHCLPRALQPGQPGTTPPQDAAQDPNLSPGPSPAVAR

[2] = molecular target: T2, 11-beta-hydroxysteroid dehydrogenase type 2 (Rattus norvegicus) (UniProt P50233); assay: Inhibition of 11beta-HSD2 in rat kidney microsomes using [3H]-CORT as substrate assessed as formation of 11-DHC at 100 uM after 30 mins by radiometric analysis relative to control; conditions: Microsome
T2 sequence (whole entry): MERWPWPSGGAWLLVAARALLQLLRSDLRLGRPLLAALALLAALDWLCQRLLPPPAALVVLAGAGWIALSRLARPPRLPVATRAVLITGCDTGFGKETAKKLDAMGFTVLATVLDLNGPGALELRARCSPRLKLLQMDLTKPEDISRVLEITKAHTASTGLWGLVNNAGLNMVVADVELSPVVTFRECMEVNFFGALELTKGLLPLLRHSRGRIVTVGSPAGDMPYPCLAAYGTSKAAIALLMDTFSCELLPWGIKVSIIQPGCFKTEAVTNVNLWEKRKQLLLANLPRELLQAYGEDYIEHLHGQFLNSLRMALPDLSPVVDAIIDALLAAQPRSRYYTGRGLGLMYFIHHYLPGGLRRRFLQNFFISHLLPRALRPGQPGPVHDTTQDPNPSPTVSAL

[3] = molecular target: T3, 11-beta-hydroxysteroid dehydrogenase 1 (Homo sapiens, UniProt P28845); assay: Inhibition of 11beta-HSD1 in human liver microsomes using [3H]-cortisone as substrate assessed as formation of cortisol after 60 to 90 mins by radiometric analysis; parameters: species or system Microsome
Target sequence in this assay (P28845 whole entry): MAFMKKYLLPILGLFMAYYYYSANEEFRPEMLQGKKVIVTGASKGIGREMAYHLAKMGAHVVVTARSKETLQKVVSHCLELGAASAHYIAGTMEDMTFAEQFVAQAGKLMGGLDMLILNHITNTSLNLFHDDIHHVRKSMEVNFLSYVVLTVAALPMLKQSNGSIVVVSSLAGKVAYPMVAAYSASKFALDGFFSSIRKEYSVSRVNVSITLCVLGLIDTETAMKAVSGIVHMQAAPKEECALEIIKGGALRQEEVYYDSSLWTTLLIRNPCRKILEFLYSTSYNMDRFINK

[4] = molecular target: T3, 11-beta-hydroxysteroid dehydrogenase 1; assay: Inhibition of human 11beta-HSD1 transfected in CHOP cells; assay type: cell-based
Target sequence in this assay (P28845 whole entry): as above

[5] = molecular target: T3, 11-beta-hydroxysteroid dehydrogenase 1; assay: Ratio of curcumin IC50 to compound IC50 for human 11beta-HSD1 transfected in CHOP cells; assay type: cell-based
Target sequence in this assay (P28845 whole entry, looked up): as the sequence (P28845 whole entry) above

[6] = molecular target: T4, 11-beta-hydroxysteroid dehydrogenase 1 (Rattus norvegicus, UniProt P16232); assay: Inhibition of 11beta-HSD1 in Sprague-Dawley rat leydig cells […]
T4 sequence (P16232 whole entry): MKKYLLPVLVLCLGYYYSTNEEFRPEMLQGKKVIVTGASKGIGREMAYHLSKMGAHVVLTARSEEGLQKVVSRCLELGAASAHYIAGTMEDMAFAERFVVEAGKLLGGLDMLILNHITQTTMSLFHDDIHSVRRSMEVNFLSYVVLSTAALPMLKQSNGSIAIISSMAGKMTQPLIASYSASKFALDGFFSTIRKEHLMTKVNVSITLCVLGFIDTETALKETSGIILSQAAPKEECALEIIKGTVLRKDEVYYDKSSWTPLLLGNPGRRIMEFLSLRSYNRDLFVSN

J774.A1 = assay: (§2) Antiinflammatory activity in mouse J774A1 cells assessed as LPS-induced TNFalpha production at 10 uM incubated 2 hrs prior to LPS challenge measured after 24 hrs by ELISA relative to vehicle-treated control; assay type: functional
[7] = molecular target: T4, 11-beta-hydroxysteroid dehydrogenase 1; assay: Inhibition of 11beta-HSD1 in rat testis microsomes using [3H]-11-DHC as substrate assessed as formation of CORT after 60 to 90 mins by radiometric analysis; parameters: species or system Microsome
[8] = molecular target: T3, 11-beta-hydroxysteroid dehydrogenase 1; assay: Inhibition of human 11beta-HSD1 transfected in CHOP cells at 100 uM relative to control; assay type: cell-based
Target sequence in this assay (P28845 whole entry, looked up): as the sequence (P28845 whole entry) above

[9] = molecular target: 11-beta-hydroxysteroid dehydrogenase 1 (Rattus norvegicus) (UniProt P16232); assay: Inhibition of 11beta-HSD1 in Sprague-Dawley rat leydig cells […] relative to control; conditions: 100 uM
11-beta-hydroxysteroid dehydrogenase 1 (Rattus norvegicus), sequence (P16232 whole entry, looked up): as the sequence (P16232 whole entry) above

[10] = as §2; assay type: functional; conditions: J774.A1
[11] = molecular target: 11-beta-hydroxysteroid dehydrogenase 1 (Rattus norvegicus) (UniProt P16232); assay: Inhibition of 11beta-HSD1 in rat testis microsomes using [3H]-11-DHC as substrate assessed as formation of CORT at 100 uM after 60 to 90 mins by radiometric analysis relative to control; conditions: Microsome
[12] = molecular target: T3, 11-beta-hydroxysteroid dehydrogenase 1; assay: Inhibition of 11beta-HSD1 in human liver microsomes using [3H]-cortisone as substrate assessed as formation of cortisol at 100 uM after 60 to 90 mins by radiometric analysis relative to control; conditions: Microsome
Target sequence in this assay (P28845 whole entry, looked up): as the sequence (P28845 whole entry) above

[13] = molecular target: T5, 11-beta-hydroxysteroid dehydrogenase type 2 (Homo sapiens, UniProt P80365); assay: as §1; parameters: species or system Microsome
T5 sequence (P80365 whole entry): T1 sequence (whole entry)

[14] = Cytotoxicity against CHOp cells; assay type: cell-based, Cricetulus griseus; conditions: chinese hamster
[15] = Cytotoxicity against rat leydig cells; assay type: cell-based
[16] = molecular target: T3, 11-beta-hydroxysteroid dehydrogenase 1; assay: Competitive inhibition of 11beta-HSD1 in human liver microsomes at 1 to 10 uM by Lineweaver-burk plot analysis in presence of cortisone; conditions: Microsome
Target sequence in this assay (P28845 whole entry, looked up): as the sequence (P28845 whole entry) above

Row | SMILES | inhibition [1] [%] | inhibition [2] [%] | IC50 [3] [nM] | IC50 [4] [nM] | Ratio IC50 [5] | IC50 [6] [nM] | inhibition (J774.A1) | IC50 [7] [nM] | inhibition [8] [%] | inhibition [9] [%] | inhibition at 10 µM [10] [%] | inhibition [11] [%] | inhibition [12] [%] | IC50 [13] [nM] | Activity [14] | Activity [15] | inhibition [16]
1 | O=C1/C(=C/c2ccc(F)cc2)CCC/C1=C\c1ccc(F)cc1 | 24 | 16 | 2970 | 263 | 9 | 1110 | inactive | 13500 | – | – | – | – | – | – | – | – | –
2 | CCOc1ccc(/C=C2\CC/C(=C\c3ccc(OCC)cc3)C2=O)cc1 | 6 | 10 | – | – | – | – | – | – | 14 | 27 | < 50 | 0 | 14 | – | – | – | –
3 | COc1cc(/C=C/C(=O)CC(=O)/C=C/c2ccc(O)c(OC)c2)ccc1O [CURCUMIN] | – | – | 16000 | 4500 | – | 3920 | inactive | 4120 | – | – | – | – | – | 15700 | – | – | –
4 | O=C1/C(=C/c2ccccc2Br)CCC/C1=C\c1ccccc1Br | 33 | 39 | 1110 | 346 | 9 | 148 | – | 218 | – | – | > 50 | – | – | – | Non-toxic | Non-toxic | –
5 | O=C(/C=C/c1ccccc1Br)/C=C/c1ccccc1Br | 53 | 39 | 529 | 115 | 9 | 129 | – | 288 | – | – | > 50 | – | – | – | Non-toxic | Non-toxic | Active
6 | O=C1/C(=C/c2ccc(F)cc2)CC/C1=C\c1ccc(F)cc1 | 26 | 9 | 17400 | 310 | 9 | 3470 | inactive | 22000 | – | – | – | – | – | – | – | – | –
